Measured values as given in patent US20260345620A1, “IMPROVEMENTS IN OR RELATING TO COMPOSITIONS FOR TREATMENT OF LESIONS” (SYDERMA LTD, priority 2023, published 2026).

Tests used:
[1] = system: actinic keratoses; details: topical; cited from earlier work
[2] = system: thymidylate synthase; details: role: inhibitor; cited from earlier work
[3] = system: actinic keratoses; experiment: Split-area topical treatment of actinic keratoses on scalp of person (Example 1); format: in vivo, human
Method: In one experiment a person with an actinic keratoses region on their scalp was treated with 5% 5-fluorouracil cream once daily for 30 days (as marked in FIG. 1, posterior region). Another area of actinic keratoses on their scalp (As marked on FIG. 1, anterior region) was treated with both 5% 5-fluorouracil cream once daily and 0.5% theobromine solution once daily for 30 days. The 5% 5-FU cream applied was a medically available cream from Mylan, commercially known as Efudix® cream. The theobromine solution was prepared in 25% ethanol and 50% glycerol, adjusted to pH 8 via 100 mM sodium hydrogen carbonate solution. Efudix® was stored as per manufacturer's instructions, at room temperature, and theobromine solution at room temperature in the dark. In application, 50-100 μL (1-2 drops) of theobromine solution was applied first in a thin water-based layer over the whole treated area evenly. 5-FU was applied 10-20 minutes later, via finger application, as per best practice and manufacturer's instructions. One fingertip unit (~0.5 g) was used for an equivalent of half the forehead area.
(§1) Redness and inflammation were assessed by the responsible physician.

[4] = system: basal cell carcinomas; details: topical; cited from earlier work
[5] = topical; percent of patients; cited from earlier work
[6] = system: basal cell carcinomas; experiment: Topical treatment of basal cell carcinomas in person (Example 4); format: in vivo, human; details: one month after completing 1 month once daily treatment; 5% 5-FU with (2 lesions) or without (1 lesion) 0.5% theobromine
Method: In another example, a person with multiple basal cell carcinomas was treated with: 5% 5-fluorouracil (5-FU) cream alone (1 lesion, back, clinical diagnosis) or a combination of 5-FU cream and theobromine solution (2 lesions-biopsy confirmed basal cell carcinoma, right leg and basal cell carcinoma, left forearm, clinical diagnosis). The treatment was continued once daily for 1 month and 0.5% percent theobromine solution. In application, 50-100 μL (1-2 drops) of theobromine solution was applied in a thin water-based layer over the whole treated area evenly (up to 50 cm2 area in total). 5-FU was applied via finger application, as per best practice and manufacturer's instructions. One finger tip unit (0.5 g) was used to cover 1 lesion. 5FU was applied 30 min after theobromine. One month after completing treatment the patient was examined by a dermatologist. The lesions treated with 5FU and theobromine resolved and the lesion treated with 5FU persisted.

[7] = system: actinic keratoses; experiment: Split-scalp topical treatment of actinic keratoses in person (Example 2); format: in vivo, human
Method: Quantification is as described for Patient #2 in Table 1;
In another experiment a person with an actinic keratoses on their scalp was treated with 5% 5-fluorouracil cream 4× per week for 4 weeks (15 lesions, as marked in FIG. 2, left side of scalp). Another area of actinic keratoses on their scalp (16 lesions, as marked on FIG. 2, right side of scalp) was treated with both 5% 5-fluorouracil cream 4× per week and 0.5% theobromine solution 4× per week for 4 weeks. The 5% 5-FU cream applied was a medically available cream from Mylan, commercially known as Efudix® cream. The theobromine solution was prepared in 25% ethanol and 50% glycerol, adjusted to pH 8 via 100 mM sodium hydrogen carbonate solution. Efudix® was stored as per manufacturer's instructions, at room temperature, and theobromine solution at room temperature in the dark. In application, 50-100 μL (1-2 drops) of theobromine solution was applied first in a thin water-based layer over the whole treated area evenly. 5-FU was applied 10-20 minutes later, via finger application, as per best practice and manufacturer's instructions. One fingertip unit (~0.5 g) was used for an equivalent of half the forehead area.
as §1

[8] = system: AK lesion; experiment: Split-scalp treatment of actinic keratoses with 5FU plus methylxanthine versus 5FU alone (Example 3); format: in vivo, human; details: for AK lesion clearance / efficacy versus 5FU alone control: 0.5% w/v methylxanthine in combination with Efudix 5% 5FU
Method: P values below 0.05, denoting significance, are as marked.
Results are shown per individual patient.
All patients were treated solely on the scalp and were only treated on half of the scalp with the test compound and 5FU, while the other half was used as control, treated with 5FU alone. Separation between combination and 5FU only control was mostly done medially, with one patient having and anterior/posterior treatment setup. As in Example 2, the patients self-administered the test compound on the test region 10-20 minutes before applying the Efudix® cream containing 5% w/v 5FU. In application, 50-100 μL (1-2 drops) of the test compound solution was applied first in a thin water-based layer over the whole treated area evenly. 5-FU was applied 10-20 minutes later, via finger application, as per best practice and manufacturer's instructions. Patients applied the regimen at regular intervals, once daily. One fingertip unit (~0.5 g) was used for an equivalent of half the scalp area.

[9] = system: basal cell carcinoma; experiment: Topical theobromine alone on basal cell carcinoma in person (Example 8, comparative); format: in vivo, human; details: 0.5% theobromine solution once daily for 1 month
Method: (§2) In another example a person with a clinical diagnosis of basal cell carcinoma was treated with 0.5% percent theobromine solution. In application, 50-100 μL (1-2 drops) of theobromine solution was applied in a thin water-based layer over the whole treated area evenly (up to 50 cm 2 area in total). Theobromine was applied once daily for 1 months. The patient was examined by a dermatologist before the treatment and one week after completion of the treatment.

[10] = system: ATM; details: role: inhibitor; physiologically and clinically achievable conditions; cited from earlier work
[11] = system: PARP; details: role: inhibitor; physiologically and clinically achievable conditions; cited from earlier work
[12] = system: actinic keratoses; experiment: Topical theobromine alone on actinic keratoses on nose of person (Example 10, comparative); format: in vivo, human
Method: (§3) In another experiment a person with an area of actinic keratoses on their nose was treated with 0.5% theobromine solution once daily for 4 weeks. The theobromine solution was prepared in 25% ethanol and 50% glycerol, adjusted to pH 8 via 100 mM sodium hydrogen carbonate solution. Theobromine solution was stored at room temperature in the dark. In application, 50-100 μL (1-2 drops) of theobromine solution was applied first in a thin water-based layer over the whole treated area evenly.
(§4) The patient reported no discomfort with treatment: pain and soreness were reported by the patient to be 0/10 in areas treated with theobromine treatment.

[13] = system: basal cell carcinoma; experiment: Topical theobromine alone on basal cell carcinoma in person (Example 7, comparative); format: in vivo, human; details: 0.5% theobromine solution once daily for 2 months
Method: as §2, with “for 2” for “for 1”, “months. At the end of the treatment, they were” for “months. The patient was”, “a dermatologist.” for “a dermatologist before the treatment and one week after completion of the treatment.”

[14] = system: actinic keratoses; experiment: Topical theobromine alone on actinic keratoses on scalp of person (Example 9, comparative); format: in vivo, human
Method: as §3, with “scalp” for “nose”
as §4

[15] = cited from earlier work
[16] = system: ATR; details: role: inhibitor; physiologically and clinically achievable conditions; cited from earlier work
[17] = four weeks after completion of treatment
[18] = 0.5% theobromine solution once daily for 4 weeks

## O=c1[nH]cc(F)c(=O)[nH]1 [5-FU, 5-fluorouracil]
[1]
  efficacy for actinic keratoses: 50-60%
[2]
  inhibition of thymidylate synthase: inhibitor of thymidylate synthase
[3]; a week following cessation of treatment
  inflammation and scaliness of treated area: significant inflammation and scaly appearance
[3]; after 30 days of once daily treatment, 5% 5-FU cream with or without 0.5% theobromine solution
  pain and soreness reported by the patient: 9 /10
[3]; after 30 days of treatment
  redness, soreness and inflammation assessed by physician: became inflamed
[3]; during 30 days of treatment
  discomfort reported by the patient: significant discomfort
[3]; [17]
  clearance of the actinic keratosis lesion: incomplete clearance
  pain reported by the patient: no pain reported by the patient
  residual inflammatory reaction: no visible residual inflammatory reaction
[3]; four weeks after completion of treatment, ImageJ image analysis
  reduction in size of actinic keratosis lesion: over 30%
[4]
  efficacy for basal cell carcinomas: 60-70%
[5]
  patients with painful, severe inflammatory reaction: 20-50%
[6]
  basal cell carcinoma lesion outcome: persisted
[7]; after 4 weeks of treatment
  redness, soreness and inflammation assessed by physician: became inflamed
[7]; after 4 weeks, 4x per week, 5% 5-FU cream with or without 0.5% theobromine solution
  pain and soreness reported by the patient: 2 /10
[7]; during 4 weeks of treatment
  discomfort reported by the patient: mild discomfort
[7]; [17]
  clearance of the actinic keratosis lesions: incomplete clearance
  pain reported by the patient: no pain reported by the patient
  residual inflammatory reaction: no visible residual inflammatory reaction
[7]; four weeks after completion, starting count 15 (5-FU alone), 16 (combination)
  actinic keratosis lesion count after treatment: 14 lesions

## Cn1c(=O)c2c(ncn2C)n(C)c1=O [caffeine]
[8]
  AK lesion clearance / efficacy versus 5FU alone control: decreased efficacy
[8]; 0.5% w/v methylxanthine with 5FU versus 5FU alone baseline
  trend in efficacy per patient: neither caffeine not theophylline showed any positive trends

## CC(C)Cn1cnc2c(N)nc3ccccc3c21 [imiquimod]
[1]
  efficacy for actinic keratoses: 50-60%
[4]
  efficacy for basal cell carcinomas: 70-80%
[5]
  patients with painful, severe inflammatory reaction: 20-50%

## Cn1cnc2c1c(=O)[nH]c(=O)n2C [theobromine]
[9]
  change in lesion size or appearance: no change in the lesion size or appearance
  inflammation or pain: No evidence of inflammation or pain
[9]; one week after completion
  basal cell carcinoma outcome: basal cell carcinoma persisted
[10]
  inhibitory activity against ATM: triple inhibitory activity (against ATM, ATR and PARP)
[11]
  inhibitory activity against PARP: triple inhibitory activity (against ATM, ATR and PARP)
[12]; [18]
  pain and soreness reported by the patient: 0 /10
[12]; 1 week after completion of 4 weeks treatment
  reduction in number of actinic keratoses: No reduction in a number of actinic keratoses
[12]; after 4 weeks of treatment
  discomfort reported by the patient: no discomfort
  redness or inflammation: no redness or inflammation detected
[13]
  basal cell carcinoma outcome: basal cell carcinoma persisted
  change in lesion appearance: no change in the lesion appearance
  inflammation or pain: No evidence of inflammation or pain
[14]; [18]
  pain and soreness reported by the patient: 0 /10
  reduction in number of actinic keratoses: No reduction in a number of actinic keratoses
[14]; after 4 weeks of treatment
  discomfort reported by the patient: no discomfort
  redness or inflammation: no redness or inflammation detected
[15]
  solubility: limited solubility
[8]
  AK lesion clearance / efficacy versus 5FU alone control: significantly improved AK lesion clearance
[16]
  inhibitory activity against ATR: triple inhibitory activity (against ATM, ATR and PARP)
